From US20070288217A1, “Method for Standardization of Chemical and Therapeutic Values of Foods and Medicines Using Animated Chromatographic Fingerprinting” (priority 2004, published 2007)
“Also recorded” adds a separate entry of the source.

Test: Chromatographic fingerprinting (HPLC-PDA contour and 3-D chromatograms) with interpretation of chemical and therapeutic properties by polarity and conjugation zones
Conditions: for Change of the molecules with time in the media (fingerprints at different time intervals): different time intervals under chemical conditions

Structure (SMILES): COc1ccc2[nH]c([S+]([O-])Cc3ncc(C)c(OC)c3C)nc2c1 (stereo not shown) [Onmeprazole]
- Therapeutic property interpreted from the fingerprint (simulated acidic condition): Ropaneeya property
- Therapeutic property interpreted from the fingerprint (the other prakrithi): has not acted so

Structure (SMILES): CC(C)=CCC/C(C)=C/C=C/C(C)=C/C=C/C(C)=C/C=C/C=C(C)/C=C/C=C(C)/C=C/C=C(\C)CCC=C(C)C [Lycopine]
- Therapeutic property / site of action interpreted from the fingerprint: shrothoshodhaka property; also recorded: stress reliever
- Change of the molecules with time in the media (fingerprints at different time intervals): under go changes; also recorded: slowly diminished with time

Structure (SMILES): CC12CC3CC(C)(C1)CC(N)(C3)C2 [Mamentane]
- Effect when consumed excessively, interpreted from the fingerprint (excessive use): effect on Maha srothas

Structure (SMILES): O=C(/C=C/c1ccc(O)c(O)c1)O[C@@H]1C[C@](O)(C(=O)O)C[C@@H](O)[C@H]1O [Chlorogenic acid]
- Change of the molecules with time in the media (fingerprints at different time intervals): under go changes

Structure (SMILES): Cc1ccc(-c2cc(C(F)(F)F)nn2-c2ccc(S(N)(=O)=O)cc2)cc1 [Celebocoxib]
- Action compared to the other medicines of the same group: different in action
